In patent publication US5874461A, “Use of Nebivolol as an anti-atherogenic” (priority 1995, dated 1999):
Where two headings read alike, the source gives them in different places.

Legend:
[1] = tested on: primary embryonic hippocampal cultures; experiment: In vitro neuroprotection against nitric oxide and superoxide radicals (inhibition of LDH release); assay type: cell-based, rats; settings: for inhibition at 1 µM / inhibition at 0.1 µM: Rattus norvegicus, read-out: % neuroprotection, mean ± SD; for inhibition at 1 µM: 10^-6 M; for inhibition at 0.1 µM: 10^-7 M; for neuroprotection against DDTC or SNP: one or the other treatment paradigm
Experimental: Primary embryonic hippocampal cultures were prepared essentially as described previously (Pauwels et al., Van Aschouw, H. P., Peeters, L., Moeremans, M., Leysen, J. E. (1992) Chronic treatment with sabeluzole protects cultured rat brain neurons from the neurotoxic effects of excitatory amino acids. Synapse, 12:271-280). Hippocampal formations of rats at embryonic day 17 were dissected and dissociated in 0.05% trypsin, 0.1 mg/ml DNase I in DMEM (Dulbecco Modified Eagle Medium). Heat-inactivated horse serum (HS) was added to a concentration of 4%, and the cells were centrifuged, washed with DMEM, and resuspended in DMEM/Ham's F12 (3:1) containing 10% HS. The cells were plated at a density of 4×10^5 cells/cm^2 in poly L-lysine (0.001%) precoated multiwell-24 plates. On day 1 in culture, the medium was changed to chemically defined CDM-R12 medium (DMEM-HEPES/Ham's F12 (3:1) containing 0.26% bovine serum albumin, 30 nM sodium selenite, 3 nM 3,3',5 triiodo-L-thyronine, 0.35 μM retinol, 0.3 μM retinol acetate, 2.3 μM DL-a-tocopherol, 2.1 μM DL-a-tocopherol acetate, 3.6 μM linolenic acid, 3.6 μM linoleic acid, 0.125% human transferrin, […], 57.7 nM corticosterone, 49 U/I insulin, 0.4 μM biotin, 10 μM L-carnitine, 83 μM D(+)-galactose, 3.3 μM glutathione, 10 μM ethanolamine, 0.1 mM putrescine; Romijn, H. J., van Huizen, F., Wolters, P. S. (1984) Towards an improved serum-free, chemically defined medium for long-term culturing of cerebral cortex tissue. Neurosci. Behav. Rev., 8:301-334). Acute and prolonged pretreatment of the, cultures was essentially as described previously (Pauwels et al., 1992). Drugs were dissolved, and diluted in 10% or 1% hydroxypropyl-β-cyclodextrin such that the final concentrations of the solvent in the acute and chronic exposures were 0.1% and 0.01% respectively. Compound A as used in the following examples is [(RRSR)+(RRRS)+(SSSR) +(SSRS)]-α-[[[2-(chroman-2-yl)-2-hydroxy-ethyl]amino]methyl]-6-hydroxy-2-chromanmethanol ethanedioate (1:1).
For acute treatment, drug, or solvent was added to the cultures on day 7. After 20 min the medium was replaced with 200 μl chemically defined DMEM medium (the same composition of CDM-R12 medium but without Ham's F12) (control), or chemically defined DMEM medium containing the oxidative stress trigger. Oxidative stress triggers used were 1 mM sodium nitroprusside (SNP, a nitric oxide radical generating compound), or 7.5-10 mM diethyldithiocarbamate (DDTC, a superoxide dismutase inhibitor) and the test compound.
For prolonged pretreatment experiments, drug (concentration range 0.1 nM-10 μM) was added to the serum-free medium on days 1 and 4 of the culture. On day 7, the cultures were washed once with DMEM, and incubated with 0.2 ml chemically defined DMEM medium for 2 h at 37° C. The cells were washed and the medium was replaced by 0.2 ml chemically defined DMEM medium (control), or chemically defined DMEM medium containing the oxidative stress trigger (se above).
For both the acute experiment and the prolonged pretreatment experiment, extracellular and intracellular LDH (lactate dehydrogenase) activities were measured spectrophotometrically at 340 nm with an EPOS Analyzer 5060, according to the method of Bergmeyer (Bergmeyer, H. U. (1974) Biochemical reagents. In: Methods of Enzymatic Analysis. H. U. Bergmeyer, eds. Academic Press, New York, 2nd Ed., pp. […]). Extracellular LDH activity in the culture medium and cytoplasmic LDH activity measured after lysis of the cells in 1 ml H2 O, were used to calculate total LDH activity and % released LDH. % Neuroprotection refers to % inhibition of LDH release, where oxidative stress trigger-induced LDH release is defined as 0% protection, and basal (control) level of LDH release is defined as 100% protection.
Neuronal primary hippocampal cultures were grown in CDM-R12 medium for 7 days. Test compounds were either administered on days 1 and 4 of culture (prolonged pretreatment) or on day 7 of culture (acute treament). […]

[2] = tested on: C6 glioma cells; experiment: Fluorescence measurement of intracellular peroxides in C6 glioma cells after glutamate; assay type: cell-based; settings: for glutamate-mediated increase in peroxidation: 10 mM glutamate; for Intracellular peroxides (mean ± SD, n): glutamate 10 mM, without or with compound 1 μM
Text: Competitive inhibition by glutamate of cystine uptake in certain cells leads to glutathione depletion and oxidative stress. This oxidative stress model has been described for glial C6 glioma cells (Kato et al., 1992. A mechanism for glutamate toxicity in the C6 glioma cells involving inhibition of cystine uptake leading to glutathione depletion. Neurosci. 48:903-914) and for the neuronal cell line N18RE105 (Murphy et al., 1989. Glutamate toxicity in a neuronal cell line involves inhibition of cystine transport leading to oxidative stress. Neuron 2:1547-1558).
Cell culture: The C6 glioma cell line (American Type Culture Collection, CCL 107) was cultivated in DMEM supplemented with 2 or 4 mM glutamine, 1 mM pyruvate and 5 or 10% heat-inactivated foetal calf serum. Cultures were maintained at 37° C. in an air/5~10% CO2, water saturated atmosphere.
Glutathione depletion and evaluation of drugs as antioxidants: Experiments were carried out with cultures plated at 30,000~50,000 cells/cm^2 in 24-well culture plates (for toxicity and lipid peroxide measurements) or at 136,000 cells/cm^2 in 96-well culture plates (for GSH determination). After 8-24 hr, the cultures were switched to culture medium in the absence or presence of the cystine uptake inhibitor glutamate at a final concentration of 10 mM. In order to test drugs for inhibition of oxidative stress, the drug was added together with glutamate (final concentration of solvent was 0.01% hydroxypropyl-β-cylodextrin, 0.1% DMSO). Intracellular glutathione levels were measured after 6~8 hr, lipid peroxides were measured after 14~20 hr, and toxicity and protection were analysed after 48 hr using an LDH assay according to the method of Bergmeyer and Bernt (UV-assay with pyruvate and NADH. In: Methods of Enzymatic Analysis. 1974. H. U. Bergmeyer, ed. Acad. Press, New York, 2nd Ed., pp 574-579).
Fluorescence measurement of intracellular peroxides: Formation of intracellular peroxides was detected using 6-carboxy-2',7'-dichlorodihydrofluorescin diacetate, di(acetoxymethyl ester) (C-DCDHF, Molecular Probes). C-DCDHF was dissolved in DMSO at a concentration of 10 mM and stored at -70° C. under nitrogen. After exposure of the culture to the glutathione depleting agents, the cells were loaded with 10 μM C-DCDHF for one hour at 37° C. Medium was aspirated off, PBS was added to the cells, and plates were read in a Cytofluor II microplate reader (PerSeptive Biosystems). Excitation and emission wavelength were selected with a 485/530 nm filter pair. The results were expressed in relative fluorescence units/μg protein.

[3] = tested on: anaesthetized dogs; settings: anaesthesized dogs; cited from earlier work
[4] = DDTC trigger, prolonged pretreatment
[5] = SNP trigger, prolonged pretreatment

SMILES | inhibition at 1 µM ([1]; DDTC trigger, acute treatment) [%] | inhibition at 0.1 µM ([1]; DDTC trigger, acute treatment) [%] | inhibition at 1 µM [1, 4] [%] | inhibition at 0.1 µM [1, 4] [%] | inhibition at 1 µM ([1]; SNP trigger, acute treatment) [%] | inhibition at 0.1 µM ([1]; SNP trigger, acute treatment) [%] | inhibition at 1 µM [1, 5] [%] | inhibition at 0.1 µM [1, 5] [%] | neuroprotection against DDTC or SNP [1] | glutamate-mediated increase in peroxidation [2] | Intracellular peroxides (mean ± SD, n) [2] | stroke volume [3] | total peripheral vascular resistance [3]
O[C@H](CNC[C@@H](O)[C@H]1CCc2cc(F)ccc2O1)[C@@H]1CCc2cc(F)ccc2O1 (relative stereo) [nebivolol, (RSSS) and (SRRR) α,α'-iminobis(methylene)bis[6-fluoro-2-chroman-methanol]] | 29 ± 16 | 32 ± 28 | 37 ± 23 | < 25 | < 25 | < 25 | 36 ± 18 | 26 ± 13 | can confer neuroprotection | inhibited the glutamate-mediated increase in peroxidation | 155 ± 13 Relative fluorescence units/μg | augments stroke volume | decreases total peripheral vascular resistance
Oc1ccc2c(c1)CCC(C(O)CNCC(O)C1CCc3ccccc3O1)O2 (stereo not drawn) [Compound A, [(RRSR)+(RRRS)+(SSSR) +(SSRS)]-α-[[[2-(chroman-2-yl)-2-hydroxy-ethyl]amino]methyl]-6-hydroxy-2-chromanmethanol ethanedioate (1:1)] | 30 ± 28 | 35 ± 32 | < 25 | < 25 | < 25 | < 25 | 38 | 39 ± 13 | can confer neuroprotection | inhibited the glutamate-mediated increase in peroxidation | 137 ± 8 Relative fluorescence units/μg |  | 
